Results reported in patent US9079913B2, “Spiro-oxindole MDM2 antagonists” (The Regents of the University of Michigan, priority 2009, dated 2015).
“And” between values parts separate entries of the source, which are not always exact repeats. Equal values may be shown once.

What was measured:
[1] = In vitro microsomal stability, rat; format: in vitro ADME; conditions: for Microsomal stability, % remaining: Rat microsomes
[2] = In vitro microsomal stability, human; format: in vitro ADME; conditions: for Microsomal stability, % remaining: Human microsomes
[3] = In vitro microsomal stability, dog; format: in vitro ADME; conditions: for Microsomal stability, % remaining: Dog microsomes
[4] = Pharmacokinetic studies in rats; format: in vivo, rat; conditions: for Plasma Concentration: male rat
Procedure: Pharmacokinetic studies on MDM2 inhibitors were carried out in rat. For comparison, the MDM2 inhibitor, AT-219, was also studied.

[5] = Pharmacokinetic studies in ICR mice; format: in vivo; parameters: Measured concentrations in the plasma samples: unit not given here; conditions: for Measured concentrations in the plasma samples: single i.v. dose 10 mg/kg; for Plasma Concentrations: single p.o dose 50 mg/kg
[6] = tested on: SJSA-1 xenograft tumors; experiment: In vivo efficacy, SJSA-1 xenograft model (tumor volume); parameters: species or system C.B-17 SCID mice; conditions: PO 300 mg/kg
Procedure: SJSA-1 tumor cells were harvested with Trypsin (0.05%)-EDTA (0.53 mM) (GIBCO™, Invitrogen Corp.), growth medium added and cells placed on ice. A cell sample was mixed 1:1 with Trypan Blue (GIBCO™, Invitrogen Corp.) and counted on a hemocytometer to determine the number of live/dead cells. Cells were washed once with 1×PBS (GIBCO™, Invitrogen Corp.) and resuspended in PBS. For Matrigel injections, after washing in PBS, cells are resuspended in an ice cold mixture of 1:1 PBS and Matrigel (BD Biosciences, Invitrogen Corp.) for a final Matrigel protein concentration of 5 mg/ml. SJSA-1 tumors were inoculated into C.B-17 SCID mice at 5×10^6 cells in 0.1 ml with Matrigel. Cells were injected s.c. into the flank region of each mouse using a 27 gauge needle.
The size of tumors growing in the mice was measured in two dimensions using calipers. Tumor volume (mm^3)=(A×B2)/2 where A and B are the tumor length and width (in mm), respectively. During treatment, tumor volume and body weight was measured three times a week. […] Mice were kept for an additional 60 days for further observation of tumor growth and toxicity.
Mice with tumors within acceptable size range were randomized into treatment groups of 8 mice for experimental compounds and 10 mice for the Control group. Experimental compounds were given orally, once per day for 2-3 weeks.

[7] = tested on: LnCAP human xenograft tumors; conditions: mice bearing LnCAP xenograft, oral 200-300 mg/kg daily or twice a day, 2 weeks; cited from earlier work
[8] = rats, IV 5 mg/kg, animals and MEAN
[9] = rats, IV 5 mg/kg, animals and MEAN, mean
[10] = rats, PO 25 mg/kg, animals and MEAN

MI-219
Microsomal stability, % remaining ([1]; 0 min): 100.00% | Microsomal stability, % remaining ([1]; 5 min): 58.19% | Microsomal stability, % remaining ([1]; 10 min): 40.59% | Microsomal stability, % remaining ([1]; 15 min): 28.11% | Microsomal stability, % remaining ([1]; 30 min): 18.61% | Microsomal stability, % remaining ([1]; 45 min): 18.42% | Microsomal stability, % remaining ([1]; 60 min): 18.38% | % of compound remaining when incubated in rat liver microsomes ([1]; Table 16, 0 min): 100% | % of compound remaining when incubated in rat liver microsomes ([1]; Table 16, 4 min): 76.6% | % of compound remaining when incubated in rat liver microsomes ([1]; Table 16, 6 min): 64.3% | % of compound remaining when incubated in rat liver microsomes ([1]; Table 16, 10 min): 57.3% | % of compound remaining when incubated in rat liver microsomes ([1]; Table 16, 15 min): 51.9% | % of compound remaining when incubated in rat liver microsomes ([1]; Table 16, 30 min): 49.3% | % of compound remaining when incubated in rat liver microsomes ([1]; Table 17, 0 min): 100% | % of compound remaining when incubated in rat liver microsomes ([1]; Table 17, 4 min): 76.6% | % of compound remaining when incubated in rat liver microsomes ([1]; Table 17, 6 min): 64.3% | % of compound remaining when incubated in rat liver microsomes ([1]; Table 17, 10 min): 57.3% | % of compound remaining when incubated in rat liver microsomes ([1]; Table 17, 15 min): 51.9% | % of compound remaining when incubated in rat liver microsomes ([1]; Table 17, 30 min): 49.3% | microsomal stability (in words) ([1]; rat liver microsomes): metabolized fairly rapidly | Microsomal stability, % remaining ([2]; 0 min): 100.00% | Microsomal stability, % remaining ([2]; 5 min): 78.76% | Microsomal stability, % remaining ([2]; 10 min): 58.19% | Microsomal stability, % remaining ([2]; 15 min): 46.46% | Microsomal stability, % remaining ([2]; 30 min): 26.46% | Microsomal stability, % remaining ([2]; 45 min): 20.88% | Microsomal stability, % remaining ([2]; 60 min): 11.86% | microsomal stability (in words) ([2]; human liver microsomes): metabolized fairly rapidly | Microsomal stability, % remaining ([3]; 0 min): 100.00% | Microsomal stability, % remaining ([3]; 5 min): 83.38% | Microsomal stability, % remaining ([3]; 10 min): 71.22% | Microsomal stability, % remaining ([3]; 15 min): 71.51% | Microsomal stability, % remaining ([3]; 30 min): 54.96% | Microsomal stability, % remaining ([3]; 45 min): 33.81% | Microsomal stability, % remaining ([3]; 60 min): 32.52% | microsomal stability (in words) ([3]; dog microsomes): metabolized fairly rapidly | Plasma Concentration ([4]; IV 5 mg/kg, 0.083 hr, animals M1, M2 and Mean): 5873.30 ng/mL and 5229.30 ng/mL | Plasma Concentration ([4]; IV 5 mg/kg, 0.083 hr, animals M1, M2 and Mean, mean): 5551.30 ng/mL | Plasma Concentration ([4]; IV 5 mg/kg, 0.5 hr, animals and Mean): 693.45 ng/mL and 548.39 ng/mL | Plasma Concentration ([4]; IV 5 mg/kg, 0.5 hr, animals and Mean, mean): 620.92 ng/mL | Plasma Concentration ([4]; IV 5 mg/kg, 1 hr, animals and Mean): 330.71 ng/mL and 344.66 ng/mL | Plasma Concentration ([4]; IV 5 mg/kg, 1 hr, animals and Mean, mean): 337.68 ng/mL | Plasma Concentration ([4]; IV 5 mg/kg, 2 hr, animals and Mean): 164.88 ng/mL and 134.91 ng/mL | Plasma Concentration ([4]; IV 5 mg/kg, 2 hr, animals and Mean, mean): 149.90 ng/mL | Plasma Concentration ([4]; IV 5 mg/kg, 4 hr, animals and Mean): 49.27 ng/mL and 56.50 ng/mL | Plasma Concentration ([4]; IV 5 mg/kg, 4 hr, animals and Mean, mean): 52.88 ng/mL | Plasma Concentration ([4]; IV 5 mg/kg, 6 hr, animals and Mean): 24.18 ng/mL and 32.66 ng/mL | Plasma Concentration ([4]; IV 5 mg/kg, 6 hr, animals and Mean, mean): 28.42 ng/mL | Plasma Concentration ([4]; IV 5 mg/kg, 8 hr, animals and Mean): 11.05 ng/mL and 18.98 ng/mL | Plasma Concentration ([4]; IV 5 mg/kg, 8 hr, animals and Mean, mean): 15.02 ng/mL | Plasma Concentration ([4]; IV 5 mg/kg, 24 hr, animals and Mean): 1.86 ng/mL and 1.28 ng/mL | Plasma Concentration ([4]; IV 5 mg/kg, 24 hr, animals and Mean, mean): 1.57 ng/mL | Plasma Concentration ([4]; PO 25 mg/kg, 0.083 hr, animals M6-M8 and Mean): 1526.57 ng/mL and 1380.03 ng/mL and 1642.42 ng/mL | Plasma Concentration ([4]; PO 25 mg/kg, 0.083 hr, animals M6-M8 and Mean, mean): 1516.34 ng/mL | Plasma Concentration ([4]; PO 25 mg/kg, 0.5 hr, animals and Mean): 3332.19 ng/mL and 2500.25 ng/mL and 4278.56 ng/mL | Plasma Concentration ([4]; PO 25 mg/kg, 0.5 hr, animals and Mean, mean): 3370.33 ng/mL | Plasma Concentration ([4]; PO 25 mg/kg, 1 hr, animals and Mean): 3101.06 ng/mL and 2957.44 ng/mL and 1779.31 ng/mL | Plasma Concentration ([4]; PO 25 mg/kg, 1 hr, animals and Mean, mean): 2612.60 ng/mL | Plasma Concentration ([4]; PO 25 mg/kg, 2 hr, animals and Mean): 1064.21 ng/mL and 1534.41 ng/mL and 1342.18 ng/mL | Plasma Concentration ([4]; PO 25 mg/kg, 2 hr, animals and Mean, mean): 1313.60 ng/mL | Plasma Concentration ([4]; PO 25 mg/kg, 4 hr, animals and Mean): 296.644 ng/mL and 223.937 ng/mL and 407.415 ng/mL | Plasma Concentration ([4]; PO 25 mg/kg, 4 hr, animals and Mean, mean): 309.33 ng/mL | Plasma Concentration ([4]; PO 25 mg/kg, 6 hr, animals and Mean): 103.285 ng/mL and 90.8093 ng/mL and 131.398 ng/mL | Plasma Concentration ([4]; PO 25 mg/kg, 6 hr, animals and Mean, mean): 108.50 ng/mL | Plasma Concentration ([4]; PO 25 mg/kg, 8 hr, animals and Mean): 80.4445 ng/mL and 66.2777 ng/mL | Plasma Concentration ([4]; PO 25 mg/kg, 8 hr, animals and Mean, mean): 64.76 ng/mL | Plasma Concentration ([4]; PO 25 mg/kg, 24 hr, animals and Mean): 25.1348 ng/mL and 17.5136 ng/mL and 20.2154 ng/mL | Plasma Concentration ([4]; PO 25 mg/kg, 24 hr, animals and Mean, mean): 20.95 ng/mL | % F ([4]; male rats, oral dose 25 mg/kg): 65% | AUC(0-t) ([4]; male rats, oral dose 25 mg/kg): 7677 ± 328 | Cmax ([4]; male rats, oral dose 25 mg/kg): 3.751 ± 1.068 µg/mL | T1/2 ([4]; male rats, oral dose 25 mg/kg): 1.4 ± 0.1 h | oral bioavailability / oral pharmacokinetics in rats (in words) ([4]; oral dosing, rats): orally bioavailable | AUC(0-t) [4, 8]: 2318.88 µg·h/L and 2379.54 µg·h/L | AUC(0-∞) [4, 8]: 2.31977 µg·h/mL and 2.37962 µg·h/mL | CLz [4, 8]: 2.16 L/h/kg and 2.10 L/h/kg | Cmax [4, 8]: 5.2293 µg/mL and 5.8733 µg/mL | MRT(0-∞) [4, 8]: 1.51 h and 1.26 h | T1/2 [4, 8]: 2.54 h and 1.86 h | Vz [4, 8]: 7.90 L/kg and 5.62 L/kg | AUC(0-t) [4, 9]: 2349.21 µg·h/L | AUC(0-∞) [4, 9]: 2.34969 µg·h/mL | CLz [4, 9]: 2.13 L/h/kg | Cmax [4, 9]: 5.5513 µg/mL | MRT(0-∞) [4, 9]: 1.38 h | T1/2 [4, 9]: 2.20 h | Vz [4, 9]: 6.76 L/kg | F ([4]; rats, PO 25 mg/kg vs IV 5 mg/kg, animals and MEAN): 65.45±2.77% and 62.81% and 65.22% and 68.34% and 65.45% | AUC(0-t) [4, 10]: 7378.78 µg·h/L and 7623.45 µg·h/L and 8028.71 µg·h/L | AUC(0-∞) [4, 10]: 7.68994 ± 0.32586 µg·h/mL and 7.37881 µg·h/mL and 7.66225 µg·h/mL and 8.02876 µg·h/mL and 7.68994 µg·h/mL | Cmax [4, 10]: 3.33219 µg/mL and 2.95744 µg/mL and 4.9657 µg/mL and 3.75178 µg/mL | MRT(0-∞) [4, 10]: 2.64 h and 2.67 h and 2.62 h | T1/2 [4, 10]: 1.36 h and 1.54 h and 1.40 h and 1.43 h | AUC(0-t) ([4]; rats, PO 25 mg/kg, animals and MEAN, mean): 7676.98 µg·h/L | AUC ([5]; 50 mg/kg oral dosing): 8.469 ± 2.381 µg·h/mL | AUC 0→9 h ([5]; p.o. 50 mg/kg): 26839 ng·h/mL and 16158 ng·h/mL and 14622 ng·h/mL | F ([5]; p.o. 50 mg/kg): 76.7% and 46.2% and 41.8% and 54.9 ± 19.0% | Kel ([5]; p.o. 50 mg/kg): 0.37 and 0.69 | MRT ([5]; p.o. 50 mg/kg): 2.5813 h and 2.043 h and 2.2585 h | Tmax ([5]; p.o. 50 mg/kg): 2 h | Cmax ([5]; p.o. 50 mg/kg, groups and Mean ± SD): 10399 ng/mL and 9201 ng/mL and 9082 ng/mL and 9561 ± 728 ng/mL | AUC 0→9 h ([5]; p.o. 50 mg/kg, mean): 19206 ± 6655 ng·h/mL | Kel ([5]; p.o. 50 mg/kg, mean): 0.47 ± 0.19 | MRT ([5]; p.o. 50 mg/kg, mean): 2.29 ± 0.27 h | Measured concentrations in the plasma samples ([5]; 5 min, groups and Mean ± SD, mean): 18041 ± 3799 | Measured concentrations in the plasma samples ([5]; 15 min, mean): 5823 ± 701 | Measured concentrations in the plasma samples ([5]; 30 min, mean): 3570 ± 871 | Measured concentrations in the plasma samples ([5]; 45 min, mean): 1731 ± 429 | Measured concentrations in the plasma samples ([5]; 1 h, mean): 1223 ± 141 | Measured concentrations in the plasma samples ([5]; 24 h): BLQ | Plasma Concentrations ([5]; 15 min): 2927 ng/mL and 1700 ng/mL and 1503 ng/mL | Plasma Concentrations ([5]; 15 min, mean): 2043 ± 772 ng/mL | Plasma Concentrations ([5]; 2 h): 10399 ng/mL and 9201 ng/mL and 5808 ng/mL | Plasma Concentrations ([5]; 2 h, mean): 8469 ± 2381 ng/mL | Plasma Concentrations ([5]; 5 h): 522 ng/mL and 277 ng/mL and 334 ng/mL | Plasma Concentrations ([5]; 5 h, mean): 378 ± 128 ng/mL | Plasma Concentrations ([5]; 24 h): Beyond | % Tumor Growth Inhib. T/C Control 750 mm^3 D27 ([6]; Exp. No. 1, SJSA-1 xenograft, D27): 44.3% | % Tumor Growth Inhib. T/C Control 750 mm^3 D24 ([6]; Exp. No. 2, SJSA-1 xenograft, D24): 30.1% | % Tumor Growth Inhib. T/C Control 750 mm^3 D29 ([6]; Exp. No. 3, SJSA-1 xenograft, D29): 15.8% | tumor growth inhibition (in words) [7]: effective tumor growth inhibition
